A short description of series [1]: Preclinical population PK model (NONMEM) of oral cabazitaxel and ritonavir in Cyp3aXAV mice. On the procedure:
Population PK modeling was performed using nonlinear mixed-effects modeling in NONMEM (version 7.5.0, ICON Development Solutions, Ellicott City, MD, USA) with a gfortran compiler and Perl-speaks-NONMEM (version 5.3.0) (Beal SL SL. NONMEM user guides. Ellicott City, Maryland, USA. 1989; Lindbom et al. Comput Methods Programs Biomed. 2005). All models were fit with first order conditional estimation method with η-ε interaction (FOCE-I). Pirana (version 2.9.9) was used as a modeling interface. R (version 4.0.4) was used for data management, visual model evaluation, and analysis and visualization of simulation data.
Due to its predictive value for human hepatic CYP3A metabolism, the PK data obtained in the Cyp3aXAV mouse model was used in the current study (Damoiseaux et al. Pharmaceuticals. 2022). […] Depending on the study, each experiment was terminated by cardiac puncture at either 2 hours or 24 hours after administration.
In the development of the compartmental PK models, inclusion of model elements, such as the number of compartments, inter-individual variability (IIV), covariate effects, and residual random effects were guided by differences in objective function value (OFV), plausibility of parameter estimates, observation of trends in goodness of fit plots, and differences in estimation precision.
This well-stirred liver model assumes the liver to have a fixed volume and blood flow and hepatic clearance (CL) is calculated as a function of hepatic blood flow (Q1) and intrinsic clearance (CLi) following Eq.1.
In the variability model, it was assumed that IIV is log-normally distributed. With Eq. 5 defining the expression for the individual parameter estimate θi.
Where θpop represents population mean parameter estimate and ηi represents its individual deviation, which is distributed following N (0, ω^2). For both PK models, in was assumed that the residual error has both an additive and proportional component. The additive component of the error model was included only for observations which were designated as <LLOQ. Time points for which no quantity of either drug could be detected were discarded. For determination of the LLOQ a signal-to-noise ratio (S/N) of 10 is applied. Thus, a fixed additive error was set for observations <LLOQ which was set to 1/10th of the LLOQ for the respective compound. Consequently, individual model predictions are related to observations following Eq. 6.
Where Cobs,ij represents the observation for the ith subject and the jth measurement. With Cpred,ij the respective prediction. Both the proportional error ep, and additive error εa,ij were assumed to be distributed following N (0, σ^2). LLOQij was included as a data record, which was set to one for observations that were below the limit of quantification.
Evaluation of candidate models was based on plausibility and precision of parameter estimates, observation of trends in goodness-of-fit plots, η and ε-shrinkage, and decreases in OFV for which a change in OFV of 3.84, corresponding to α=0.05, was considered to be significant for hierarchical models. All models were required to achieve successful minimization. The predictive performance of the model was evaluated by simulating 500 datasets using the candidate models from which the 5th, 50th, and 95th percentiles were calculated, along with their 95% confidence intervals, which were compared with the 5th, 50th, and 95th of the observations using a visual predictive check (VPC). The uncertainty in the final parameter estimates was evaluated using a sampling importance-resampling (SIR) algorithm (Dosne et al. J Pharmacokinet Pharmacodyn. 2017).

A short description of series [2]: Carboxylesterase pharmacokinetic experiment: oral cabazitaxel 10 mg/kg, 2 h, in wild-type, Ces1cde−/− and Ces1−/− mice. To be noted: for lower plasma AUC0-2h / reduction of Cmax: oral cabazitaxel 10 mg/kg; for Kp at 2 h / Cmax / Tmax / AUC(0-t): male, FVB, mouse, po, 10 mg/kg; for Cmax / Tmax / AUC(0-t): plasma; for AUC(0-t): read-out: AUC0-120min. In kind it is in vivo. On the procedure:
The experiment was terminated by cardiac puncture at 2 hours. The organ collection and sample pretreatment were as described above.
Differences were considered statistically significant when P<0.05. All data are presented as geometric mean±SD.
This experiment was performed in the absence of ritonavir.

The conditions of series [3]: Cyp3a−/− compared to wild-type mice; earlier study; cited from earlier work.
Another series is described as follows: in vivo. On the procedure: Male wild-type, Oatp1a/1b^−/−, transgenic OATP1B1 and OATP1B3 mice in an Oatp1a/1b^−/− background, Oatp1a/1b/2b1b^−/−, Ces1b^−/− and Ces1cdeb^−/− mice were used.
The Accord (20 mg/mL) formulation contains polysorbate 80, citric acid and 395 mg/mL anhydrous ethanol. […] The stock solution was further diluted 5-fold with water to obtain a 2.5 mg/mL dosing solution for oral administration. The vehicle solution only consisted of polysorbate 80, ethanol and water (1:1:8, v/v/v). All dosing solutions were prepared freshly on the day of the experiment.
The termination time point was at 2 hours and 15 minutes. […] The termination, organ collection and sample pretreatment were as described above.
Non-compartmental analysis was performed to estimate the pharmacokinetic parameters by using the software package PK solutions 2.0.2 (SUMMIT, Research Service). The linear trapezoidal rule without extrapolating to infinity was used to calculate the area under the curve (AUC) of the plasma-concentration time curve for all the compounds. The peak plasma concentration (Cmax) and the time to reach peak plasma concentration (Tmax) were obtained directly from the individual raw data. […] GraphPad Prism 9 (GraphPad Software Inc., La Jolla, CA) was used for the statistical analysis and the preparation of the graphs. […]

Setting [4] is: cabazitaxel PK model, allometrically scaled to a 70 kg human.
Where [5] appears, read: inter-individual variability, population PK model, Cyp3aXAV mice.
Setting [6] is: Ces1cde−/− compared to wild-type mice.
The mark [7] stands for this setting: Ces1−/− compared to wild-type mice.
Where [8] appears, read: Ces1cde−/− mice, oral 10 mg/kg cabazitaxel.
Where [9] appears, read: Ces1−/− mice, oral 10 mg/kg cabazitaxel.
[10] abbreviates: wild-type mice, oral 10 mg/kg cabazitaxel.
Where [11] appears, read: wild-type mice, oral 10 mg/kg cabazitaxel, 2 h.

SMILES strings stand for the structures. Read-outs that look alike come from different tables or passages of the source.

On to `CO[C@H]1C(=O)[C@]2(C)[C@@H](OC)C[C@H]3OC[C@@]3(OC(C)=O)[C@H]2[C@H](OC(=O)c2ccccc2)[C@]2(O)C[C@H](OC(=O)[C@H](O)[C@@H](NC(=O)OC(C)(C)C)c3ccccc3)C(C)=C1C2(C)C` [cabazitaxel], for which the “Ka, 10 mg/kg, First-order absorption rate constant when co-administered with 10 mg/kg ritonavir” value in series [1] (cabazitaxel PK model) is 2.62 h⁻¹. Moreover, the “Ka, 25 mg/kg, First-order absorption rate constant when co-administered with 25 mg/kg ritonavir” value in series [1] (cabazitaxel PK model) amounted to 1.22 h⁻¹. In series [1] (cabazitaxel PK model, Cyp3aXAV mice), the “Ka, First-order absorption rate constant” value worked out at 5.83 h⁻¹. Moreover, the “CLint, Uninhibited intrinsic clearance” value in series [1] (cabazitaxel PK model, Cyp3aXAV mice, allometrically scaled to a 70 kg human) was found to be 106 L/h. Moreover, the “Q2, Inter compartment clearance” value in series [1] (setting [4]) was found to be 27.7 L/h. Moreover, in series [1] (setting [4]), the “VP, Peripheral volume” value is 613 L. Besides, in series [1] (setting [5]), the “IIV F” value is reported as 22.7 CV %. Besides, the “IIV Ka” value in series [1] (setting [5]) worked out at 63.4 CV %. In addition, in series [1] (population PK model, Cyp3aXAV mice, allometrically scaled to a 70 kg human), the “VC, Central volume” value stood at 293 L. For the same compound, the “lower absolute testis concentration” value in series [2] (Ces1cde−/− compared to wild-type mice, 2 h) is recorded as 2.3 fold; in series [2] (Ces1−/− compared to wild-type mice, 2 h), 2.6 fold. For the same compound, the results for the “lower plasma AUC0-2h” value in series [2] (setting [6]) and in series [2] (setting [7]) were 6.7 fold and 7.2 fold, respectively. Moreover, the “reduction of Cmax” value in series [2] (setting [6]) came to 5.4 fold; in series [2] (setting [7]), 6.0 fold. Besides, the “SIC (% of dose), small intestinal content as percentage of dose” value was 0.16 ± 0.09 % of dose in series [2] (Ces1cde−/− mice, oral 10 mg/kg cabazitaxel, 2 h); 0.10 ± 0.04 % of dose in series [2] (Ces1−/− mice, oral 10 mg/kg cabazitaxel, 2 h); 0.11 ± 0.06 % of dose in series [2] (setting [11]). Also, the Kp at 2 h in series [2] (brain, Ces1cde−/− mice, oral 10 mg/kg cabazitaxel, 2 h, read-out: Brain-to-plasma ratio) is 0.28 ± 0.06; in series [2] (brain, Ces1−/− mice, oral 10 mg/kg cabazitaxel, 2 h, read-out: Brain-to-plasma ratio), 0.43 ± 0.06; in series [2] (brain, wild-type mice, oral 10 mg/kg cabazitaxel, 2 h, read-out: Brain-to-plasma ratio), 0.04 ± 0.003; in series [2] (liver, Ces1cde−/− mice, oral 10 mg/kg cabazitaxel, 2 h, read-out: Liver-to-plasma ratio) it was 13.1 ± 4.6; in series [2] (liver, Ces1−/− mice, oral 10 mg/kg cabazitaxel, 2 h, read-out: Liver-to-plasma ratio), 14.9 ± 4.49; in series [2] (liver, wild-type mice, oral 10 mg/kg cabazitaxel, 2 h, read-out: Liver-to-plasma ratio), 1.64 ± 0.59. For the same compound, the figures for the Cmax in series [2] (setting [8]), in series [2] (setting [9]) and in series [2] (setting [10]) were 1080 ± 450 nM, 969 ± 219 nM and 5830 ± 1800 nM, respectively. Besides, the Tmax in series [2] (setting [8]) is 25 min; in series [2] (setting [9]), 32.5 min; in series [2] (setting [10]), 25 min. The AUC(0-t) was determined as 1.03 ± 0.395 µM·h in series [2] (setting [8]), 0.946 ± 0.22 µM·h in series [2] (setting [9]) and 6.86 ± 1.94 µM·h in series [2] (setting [10]). Further, the CLiver in series [2] (setting [11]) was found to be 2035 ± 460 pmol/g. Further, in series [2] (setting [11]), the Cbrain is recorded as 49.9 ± 5.96 pmol/g. The “previously observed difference of plasma AUC” value in series [3] is given as “approximately 6 fold”.

Take `CC(C)c1nc(CN(C)C(=O)N[C@H](C(=O)N[C@@H](Cc2ccccc2)C[C@H](O)[C@H](Cc2ccccc2)NC(=O)OCc2cncs2)C(C)C)cs1` [ritonavir]: the Tmax in the series “in vivo” (male, FVB, mouse, in vivo, po, 25 mg/kg) is 65 min. In addition, in “in vivo” (wild-type mice, oral 25 mg/kg ritonavir alone, 2 h 15 min), the Cbrain is recorded as 123 ± 57.8 pmol/g.
